Measurements published in patent US5747503A, “Selective inhibitors of biogenic amine transporters” (priority 1996, dated 1998).
“Also recorded” adds a separate entry of the source. Read-outs that look alike come from different tables or passages of the source.

Key:
NE transporter = molecular target: T1, NE transporter (Rattus norvegicus, UniProt Q63380); assay: [^3 H]Nisoxetine binding to NE transporter
T1 construct: from tissue; host or cells: brain membranes prepared by a cited method
Procedure: Membranes for the [^3 H]nisoxetine assay were prepared as described (Rothman, R. B., et al. Synapse 14: 34-39 (1993)).
(§1) The [^3 H]nisoxetine assay for the norepinephrine transporter (NE) was carried out as described (Rothman, et al. (1993), supra; Tejani-Butt, S. M., et al. Eur. J. Pharmacol. 191:239-243 (1990)). DA transporters were labeled with [^3 H)CFT with minor modifications of published protocols (Madras, B. K., et al. Mol. Pharmacol. 36: 518-524 (1989)). Briefly, 12×75 mm polystyrene test tubes were prefilled with 100 μl of drug, 100 μl of radiolabeled (1 nM final concentration), 50 μl of buffer. Drugs were dissolved in BB containing 1 mg/ml bovine serum albumin (BB/BSA). Radioligands were made to a final concentration in a protease inhibitor cocktail containing 1 mg/ml BSA {BB containing chymostatin (25 μg/ml), leupeptin (25 μg/ml), EDTA (100 μM), and EGTA (100 μM)}. The assay was initiated by the addition of 750 μl of membranes, prepared as described above. Brandel cell harvesters were used to filter the samples over Whatman GF/B filters, which were presoaked in wash buffer (ice-cold 10 mM TRIS-HCL, pH 7.4 containing 150 mM NaCl) containing 2% polyethylenimine. In this procedure, samples were filtered and then washed with two 4 ml aliquots of ice-cold wash buffer. Nonspecific binding was defined using 10 μM (final concentration) GBR12909. All subsequent steps were identical to those described above.
(§2) Inhibition curves were fit to the two parameter logistic equation for the best-fit estimates of the IC50 using nonlinear least squares curve fitting methods as previously described (Rothman et al. (1993), supra); Jones, S. M. and Rogawski, M. A. Mol. Neuropharmacol. 2: 303-310 (1992)).
(§3) Synaptosomal uptake and ligand binding assays were conducted as described
(§4) Preliminary experiments were conducted to determine the doserange
(§5) The data of two experiments were
(§6) pooled, and fit to the two parameter logistic equation for the bestfit

PCP site 2 = assay type: binding, guinea pig
Procedure: Large batches of frozen membranes were prepared with minor modifications of published procedures (Rothman, et al. (1989), supra). Twenty to thirty frozen guinea pig brains with cerebellum were thawed for 15 minutes and homogenized with a Polytron in ice-cold 5 mM Tris-HCl, pH 8.0 (10 ml/brain). The homogenate was centrifuged at 37,000×g for 10 minutes, and the pellet was washed by resuspension in the same volume of buffer followed by recentrifugation. The pellets were resuspended in an equal volume of 5 mM Tris-HCl, pH 8.0, and the concentration was adjusted to 50 mM by the addition of 1M Tris-HCl, pH 8.0. The homogenate was centrifuged for 10 min at 37,000×g. The pellets were then washed three times by resuspension and centrifugation using 50 mM Tris-HCl, pH 8.0. The final pellets were resuspended in the Tris-HCl buffer (0.5 ml/brain), pooled and 1 ml aliquots were distributed to microfuge tubes, which were stored at -70° for assay.
The [^3 H]TCP binding assay for PCP site 2 was conducted with minor modifications of published protocols (Rothman, et al. (1989), supra). Briefly, 12×75 mm polystyrene test tubes were prefilled with 100 μl of [^3 H]TCP (2 nM final concentration) in a protease inhibitor cocktail (PIC) containing 5000 nM (+) -MK801, 100 μl of distilled H2 O or drug (in distilled H2 0), 50 μl of buffer (5 mM Tris-HCL, pH 8.0), and 750 μl of membrane (0.5-1.0 mg/ml protein, in 5 mM Tris-HCl, pH 8.0). […] The protease inhibitor cocktail was composed of 25 μg/ml leupeptin, 25 μg/ml chymostatin, 0.1 mM EDTA, and 0.1 mM ethylene glycol-bis-(beta-aminoethyl-ether)-N,N,N',N'-tetraacetic acid (EGTA). The incubation time was 18-24 hours at 4° C. (steady state) in a final volume of 1 ml. Triplicate samples were filtered with an MR24 Brandel Cell Harvester and washed with two 5 ml aliquots of ice cold buffer. Whatman GF/B filters were presoaked in buffer containing 2% polyethylenimine. The tritium retained on the filters was measured using a Taurus scintillation counter at 44% efficiency after an overnight extraction into ICN Cytoscint cocktail. Non specific binding was determined using 10 μM of TCP. Protein was determine using the method of Lowry, et al., supra.
as §2
^a The binding assays for PCP (site 2) and PCP (site 1) were conducte
as previously reported (Rothman, R. B., et al., In: Multiple Sigma and PC
Receptor Ligands: Mechanisms for Neuromodulation and Protection 307-330
(Domino, E. F. and Kamenka, J. M., eds., 1992) using [^3 H]TCP in the
presence of (+)MK801 for site 2 and [^3 HMK801 for site 1 except that
the [^3 H]TCP assays were terminated after 18-24 hours of incubation

DA transporter = molecular target: T2, DA transporter (Rattus norvegicus, UniProt P23977); assay: [^3 H]CFT binding to DA transporter
T2 construct: Striata were dissected using glass manipulators; from tissue; host or cells: striatum of male Sprague-Dawley rats, membranes
T2 sequence (P23977 whole entry): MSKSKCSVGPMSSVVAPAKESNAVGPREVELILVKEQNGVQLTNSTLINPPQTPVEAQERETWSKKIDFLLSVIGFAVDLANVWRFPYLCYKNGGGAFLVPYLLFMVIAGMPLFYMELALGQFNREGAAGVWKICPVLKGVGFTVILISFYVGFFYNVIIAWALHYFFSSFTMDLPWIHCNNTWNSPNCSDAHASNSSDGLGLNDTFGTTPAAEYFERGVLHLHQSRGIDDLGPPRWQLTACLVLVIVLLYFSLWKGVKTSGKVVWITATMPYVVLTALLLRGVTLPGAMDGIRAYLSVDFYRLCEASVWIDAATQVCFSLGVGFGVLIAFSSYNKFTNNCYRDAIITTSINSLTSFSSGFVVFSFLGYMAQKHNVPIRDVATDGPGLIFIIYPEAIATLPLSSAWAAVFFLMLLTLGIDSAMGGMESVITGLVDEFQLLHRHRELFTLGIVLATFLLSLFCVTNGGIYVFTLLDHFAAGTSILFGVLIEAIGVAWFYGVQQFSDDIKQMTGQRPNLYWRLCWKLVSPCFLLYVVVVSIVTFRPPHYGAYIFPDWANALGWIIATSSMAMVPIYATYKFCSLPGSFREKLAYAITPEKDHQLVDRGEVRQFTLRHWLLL
Procedure: For [^3 H]J2B-carbomethoxy-3B-(4-fluorophenyl)-tropane (CFT, WIN35,428) binding assays, male Sprague-Dawley rats (200 to 300 gm) were anesthetized with C02 gas, and decapitated. Striata were dissected using glass manipulators, placed in small plastic containers, and then allowed to freeze by placing the container in dry ice.
Striata collected in this way were stored at […]. On the day of the assay, each striatum was placed in ice-cold binding buffer (BB: 55.2 mM sodium phosphate buffer, pH 7.4, 5 ml per caudate), and homogenized while still frozen with a Polytron. The homogenate was centrifuged for 10 min at 30,000×g, and the pellet was resuspended in an equal volume of BB. The homogenate was recentrifuged, and the pellet was resuspended in an equal volume of BB. An aliquot was saved for determination of protein (0.5 ml), and the remaining homogenate was brought up to a final volume of 22 ml/striatum using ice-cold BB. […] Aliquots of membranes were then used in the radioligand binding assays.
as §1, §2, §3, §4, §5, §6

[1] = Table 2, nM ±, read-out: [^3 H]Nisoxetine Binding IC50
[2] = Table 1, [^3 H]TCP in presence of (+)MK801, 18-24 hours at 4° C.
[3] = Table 2, nM ± SD, rat striatum, read-out: [^3 H]CFT Binding IC50

T1 sequence (Q63380 1-617): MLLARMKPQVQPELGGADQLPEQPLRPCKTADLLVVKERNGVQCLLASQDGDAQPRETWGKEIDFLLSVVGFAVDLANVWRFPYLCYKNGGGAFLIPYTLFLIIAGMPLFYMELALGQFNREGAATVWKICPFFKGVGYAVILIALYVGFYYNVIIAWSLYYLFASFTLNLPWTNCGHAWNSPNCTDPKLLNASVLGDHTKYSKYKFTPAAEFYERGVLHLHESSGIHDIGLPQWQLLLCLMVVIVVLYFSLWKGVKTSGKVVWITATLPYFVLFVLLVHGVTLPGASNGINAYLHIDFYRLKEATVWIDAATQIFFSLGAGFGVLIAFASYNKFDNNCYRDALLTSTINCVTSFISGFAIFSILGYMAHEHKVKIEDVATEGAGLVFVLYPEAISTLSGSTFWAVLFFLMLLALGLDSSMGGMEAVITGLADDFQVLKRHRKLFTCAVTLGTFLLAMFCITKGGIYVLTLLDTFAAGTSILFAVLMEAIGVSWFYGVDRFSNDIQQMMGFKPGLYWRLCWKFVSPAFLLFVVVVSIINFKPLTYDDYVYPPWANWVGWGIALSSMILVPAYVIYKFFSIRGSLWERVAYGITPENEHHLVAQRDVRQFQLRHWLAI

Row | Structure (SMILES) | [^3 H]nisoxetine binding / NE transporter affinity in words (NE transporter) | IC50 (NE transporter; [1]) | affinity/selectivity for PCP site 2 in words (PCP site 2) | IC50 (PCP site 2; [2]) | IC50 (PCP site 2; Table 2, nM ± SD) | IC50 (PCP site 2; Table 3, guinea pig membranes) | affinity/selectivity for PCP site 2 in words (PCP site 2; listed as 3b) | [^3 H]CFT binding inhibition in words (DA transporter) | IC50 (DA transporter; [3]) | IC50 (PCP site 2) | IC50 (NE transporter) | IC50 (DA transporter)
1 | CN1[C@H](Cc2ccccc2)C[C@H]2Cc3ccccc3[C@H]21 (relative stereo) [RTI-4793-14, (2RS, 3aSR, 8aRS)-1,2,3a,8,8a-Hexahydro-2-benzyl-1-methyl-indeno[1,2-b]pyrrole] | moderate potency | 609 ± 48 nM | high affinity and selectivity; also recorded: highest affinity for PCP site 2 of any of the drugs tested | 37.9 nM | 37.9 ± 5.7 nM | 37.9 ± 5.7 nM | potent and selective ligand for site 2 | moderate potency | 850 ± 101 nM | – | – | –
2 | C[C@]12N[C@H](Cc3ccccc31)c1ccccc12 [(+)-MK801] | negligible affinity | 6580 ± 860 nM | – | 15900 nM | > 10000 nM | – | – | negligible affinity | > 15000 nM | – | – | –
3 | CNC1CC(c2ccc(Cl)c(Cl)c2)c2ccccc21 (stereo not shown) [Indatraline] | – | – | – | – | 2530 ± 485 nM | – | – | potently inhibited; also recorded: potent inhibitor | – | 2500 nM | – | –
4 | c1ccc(C2(N3CCCCC3)CCCCC2)cc1 [PCP, phencyclidine] | very low affinity | – | approximately the same potency at both sites; also recorded: moderate and about equal affinity for PCP site 1 and PCP site 2 | 92.4 ± 7 nM | 92.4 ± 7 nM | – | – | lower affinity | – | – | 16630 ± 98 nM | > 1500 nM
